Experimental data as given in patent publication US20020048572A1, “Treatment of hypertriglyceridemia and other conditions using LXR modulators” (priority 2000, published 2002).

What was measured:
Gal4-LXRβ = Gal4-LXRβ (Homo sapiens, UniProt P55055); test: HEK293 Gal4-nuclear receptor chimera luciferase reporter assay; format: cell-based; conditions: T0901317 1 μM, T0314407 5 μM, 20 h
From the text: (§1) FIG. 7. (A) Dose responses to LXR ligands in an HEK293 transient transfection assay using a wild-type LXRα expression plasmid and a luciferase reporter gene containing two copies of an LXR response element. DMSO treatments were used to derive the basal level of activation. […] HEK293 cells were cotransfected with a luciferase reporter gene containing four copies of the Gal4 DNA-binding site and the various chimeric Gal4 (DNA-binding domain)-nuclear receptor (ligand-binding domain) proteins shown.
(§2) HEK293 cells were cotransfected with a luciferase reporter gene and the various Gal4-nuclear receptor chimeric constructs shown and a β-galactosidase (β-gal) expression vector for normalization. Transfected cells were treated with the indicated compounds for 20 h before being harvested. Transfection data and luciferase results are normalized to β-gal and expressed as the fold-induction relative to DMSO controls.
(§3) PXR, a nuclear receptor involved in the CYP3A-mediated metabolism of a diverse collection of xenobiotics, is known to be activated by a large number of synthetic compounds (Jones et al., Mol. Endocrinol. 14:27-39 (2000)).

Gal4-LXRα = Gal4-LXRα (Homo sapiens, UniProt Q13133); test: as above; format: cell-based; conditions: T0901317 1 μM, T0314407 5 μM, 20 h
Sequence of Gal4-LXRα (P04386 1-147 partner limits assumed, one chain of several): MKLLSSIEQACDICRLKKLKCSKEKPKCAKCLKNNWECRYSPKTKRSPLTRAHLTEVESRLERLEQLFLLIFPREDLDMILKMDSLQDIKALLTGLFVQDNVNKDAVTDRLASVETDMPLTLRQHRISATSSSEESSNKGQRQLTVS
From the text: as §1, §2, §3

C57BL/6 mice = test: Plasma lipid analysis in C57BL/6 mice; format: in vivo, mouse; conditions: oral treatment
From the text: FIG. 8. Plasma lipid levels in animals treated with LXR agonist T0901317. The concentrations of (A) plasma triglycerides and (B) HDL-cholesterol for C57BL/6 mice (n=5, for each treatment group, M, males, F, females). (C) Separation of Golden Syrian hamster plasma by fast protein liquid chromatography (FPLC) in combination with analysis of the triglyceride content across PPLC fractions. Lipid data are reported as the mean ±SD for the number of determinations (animals) described in each experiment. Statistical significance (kybd) was defined as P<0.05 (ANOVA using SAS programming statistical test for controls and LXR agonist-treated animals). C57BL/6 mice (Charles River Laboratories) were between 6 and 10 wk old and weighed ˜20-30 g at the initiation of treatment. Golden Syrian Hamsters (Harlan Sprague-Dawley) were between 12 and 16 wk old (80-150 g). Animals were fed regular chow diets containing ˜4% fat and 0.02% cholesterol (PMI Pi-colab 5053 Chow). LXRα and β−/− mice were reared at the University of Texas Southwestern (UTSW) Medical Center at Dallas in accordance with the Institutional Animal Care and Research Advisory Committee at the UTSW Medical Center. Mice at UTSW were maintained on a 12 h light/12 h dark cycle and fed ad libitum a cereal-based mouse chow diet (No. 7001, Harlan Teklad). Plasma was prepared from euthanized mice using standard centrifugation techniques and analyzed for plasma total cholesterol, HDL cholesterol, and triglyceride concentrations using a Hitachi 704 Clinical Analyzer. FPLC of plasma lipoproteins was accomplished using 200 μL aliquots of pooled plasma (from three to five animals) and fractionated on Superose 6 columns (Pharmacia). Cholesterol, triglyceride, and phospholipid concentrations in the fractions were determined enzymatically with reagents from Boehringer, Sigma, and Wako, respectively. Hepatic lipids were extracted and analyzed for triglyceride essentially as described (Bucolo, G. and David, H., Clin. Chem. 19:476-482 (1973); Yokode et al., Science 250:1273-1275 (1990)).

LXRα = target: T1, LXRα (Homo sapiens, UniProt Q13133); conditions: fold relative to DMSO
T1 sequence (Q13133 1-447): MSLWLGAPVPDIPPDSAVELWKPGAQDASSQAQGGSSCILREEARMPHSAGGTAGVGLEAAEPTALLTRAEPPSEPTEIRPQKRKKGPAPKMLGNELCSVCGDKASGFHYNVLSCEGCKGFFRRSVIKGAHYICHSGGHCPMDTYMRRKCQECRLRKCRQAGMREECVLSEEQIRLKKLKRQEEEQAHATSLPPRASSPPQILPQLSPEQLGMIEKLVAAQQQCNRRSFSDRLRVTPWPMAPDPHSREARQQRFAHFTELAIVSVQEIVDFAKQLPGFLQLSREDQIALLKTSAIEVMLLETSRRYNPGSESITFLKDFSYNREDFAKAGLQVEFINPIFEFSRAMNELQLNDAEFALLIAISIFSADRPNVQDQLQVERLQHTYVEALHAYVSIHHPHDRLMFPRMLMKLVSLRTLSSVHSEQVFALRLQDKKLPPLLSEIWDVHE

mouse liver mRNA = test: Northern blot analysis of hepatic gene expression in treated mice; format: in vivo
Method: FIG. 9. Northern blot analysis. Total RNA was isolated from the tissues indicated from mice (A,B,C) and hamsters (D). The numerical data shown with each figure represents the fold increase (+) or decrease (-) of expression relative to corresponding vehicle-treated controls. (E) HepG2 cells were incubated in culture media with or without cycloheximide (cyclohex). Total RNA extraction and purification for Northern blot analysis was accomplished using the TRI reagent (Molecular Research Center). […] Mouse gene expression was assessed by Northern blot analysis using random primed, ^32P-labeled, cDNA probes that were generated using the primers described in FIG. 11. Hybridization signals were quantified using a phosphoimager (Molecular Dynamics) and standardized against GAPDH controls. Mouse cDNA probes for the numerous genes analyzed were prepared using primers from mouse liver or intestinal cDNA as template. The SREBP-2 cDNA was a gift from J. D. Horton (University of Texas Southwestern Medical Center, Dallas); mouse and hamster CYP7[…]. W. Russell (University of Texas Southwestern Medical Center, Dallas). SCD-1 was a gift from J. Ntambi (University of Wisconsin, Madison), and apoD was kindly provided by […] (University of Quebec, Montreal).

Sequence of Gal4-LXRβ (P55055 222-460 limits assumed): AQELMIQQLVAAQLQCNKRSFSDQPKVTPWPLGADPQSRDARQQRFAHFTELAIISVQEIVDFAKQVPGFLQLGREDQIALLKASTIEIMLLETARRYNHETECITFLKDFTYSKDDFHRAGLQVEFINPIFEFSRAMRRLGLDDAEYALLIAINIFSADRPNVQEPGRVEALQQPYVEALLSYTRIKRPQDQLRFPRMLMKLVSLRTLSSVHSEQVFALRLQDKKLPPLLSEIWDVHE
Sequence of Gal4-LXRβ (P04386 1-147 partner limits assumed): as the sequence (P04386 1-147 partner limits assumed, one chain of several) above

- transactivation of chimeric Gal4-LXRβ (Gal4-LXRβ): transactivation was also noted
- transcriptional activation of Gal4-LXRα (Gal4-LXRα): highest activity
- induction of transcriptional activity of LXRα (LXRα): eightfold
- steady-state mRNA levels of CYP7A1, SCD-1, and SREBP-1 (mouse liver mRNA): increased in a dose-dependent manner
- transcript level of 3-hydroxy-3-methylglutaryl coenzyme A synthase (HMG CoA S) (mouse liver mRNA): consistently reduced
SMILES: O=S(=O)(c1ccccc1)N(CC(F)(F)F)c1ccc(C(O)(C(F)(F)F)C(F)(F)F)cc1 [T0901317, N-(2,2,2-trifluoro-ethyl)-N-[4-(2,2,2-trifluoro-1-hydroxy-1-trifluoromethyl-ethyl)-phenyl]-benzenesulfonamide]
- HDL-phospholipid (C57BL/6 mice): comparable increases
- plasma total cholesterol (mainly HDL cholesterol) (C57BL/6 mice): comparable increases
- plasma triglycerides (C57BL/6 mice): significant elevations
- plasma very low density lipoproteins (VLDL) triglycerides (C57BL/6 mice): Increases
- apoAI, apoAII, apoD, apoE, MTP and NaTCP gene expression (mouse liver mRNA): remained unaffected
- transcript level of squalene synthase (SQS) (mouse liver mRNA): consistently reduced
- SR-BI, apoCIII and DCAT transcript levels (mouse liver mRNA; data not shown): did not appear to vary in level
- hepatic ACC gene activity (Northern blot) (mouse liver mRNA; fold increase vs vehicle): twofold
- hepatic FAS gene activity (Northern blot) (mouse liver mRNA; fold increase vs vehicle): threefold
- hepatic SCD-1 gene activity (Northern blot) (mouse liver mRNA; fold increase vs vehicle): up to ninefold
